This is an account of results in patent US20110071150A1 (priority 2009, published 2011).

The assay has as its system Jurkat IL-2 Production. The experiment in a line: Jurkat IL-2 Production Assay. The class given is cell-based. Particulars: Homo sapiens, Jurkat cell (ATCC), 18-20 h incubation, PHA 5 μg/mL with 1% FBS, or PMA/Ionomycin with 30% FBS (table does not say which). The method in brief: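 Jurkat cells were exposed to compound (0.25% DMSO final) for 10 min, then stimulated for 18–20 h at 37 °C. The 1% FBS condition used 5 μg/mL PHA; the high-serum condition (30% FBS) used 50 ng/mL PMA plus 500 ng/mL ionomycin. IC50 was derived from IL-2 production.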
Broadly, the IC50 is the concentration at which inhibition is half-maximal. Take `Cc1cc(C#N)ccc1-c1ccc2[nH]c(-c3c(F)cccc3Cl)cc2c1` [Example 158, 4-[2-(2-chloro-6-fluorophenyl)-1H-indol-5-yl]-3-methylbenzonitrile]: the IC50 was 16 nM. With `Cc1cc(S(=O)(=O)N(C)C)ccc1-c1ccc2[nH]c(-c3c(F)cccc3Cl)cc2c1` [Example 159, 4-[2-(2-Chloro-6-fluoro-phenyl)-1H-indol-5-yl]-3,N,N-trimethyl-benzenesulfonamide] the figure was 25 nM; with `Cc1cc(Cl)ncc1-c1ccc2[nH]c(-c3c(F)cccc3Cl)cc2c1` [Example 160, 2-(2-Chloro-6-fluoro-phenyl)-5-(6-chloro-4-methyl-pyridin-3-yl)-1H-indole], 18 nM. Molecule `Cc1cc(C#N)cnc1-c1ccc2[nH]c(-c3c(F)cccc3Cl)cc2c1` [Example 161, 6-(2-(2-chloro-6-fluorophenyl)-1H-indol-5-yl)-5-methylnicotinonitrile] gave an IC50 of 99 nM.

As for `Cc1cc(C#N)ncc1-c1ccc2[nH]c(-c3c(F)cccc3Cl)cc2c1` [Example 162, 5-(2-(2-chloro-6-fluorophenyl)-1H-indol-5-yl)-4-methylpicolinonitrile], half-maximal inhibition (IC50) was put at 34 nM. Molecule `COCCOc1cc(C)c(-c2ccc3[nH]c(-c4c(F)cccc4Cl)cc3c2)cn1` [Example 163, 2-(2-chloro-6-fluorophenyl)-5-(6-(2-methoxyethoxy)-4-methylpyridin-3-yl)-1H-indole] gave an IC50 of 108 nM. Turning to `CCOc1cc(C)c(-c2ccc3[nH]c(-c4c(F)cccc4Cl)cc3c2)cn1` [Example 164, 2-(2-chloro-6-fluorophenyl)-5-(6-ethoxy-4-methylpyridin-3-yl)-1H-indole], 33 nM corresponded to half-maximal inhibition (IC50). The value for `Cc1cc(N2CCOCC2)ncc1-c1ccc2[nH]c(-c3c(F)cccc3Cl)cc2c1` [Example 165, 4-(5-(2-(2-chloro-6-fluorophenyl)-1H-indol-5-yl)-4-methylpyridin-2-yl)morpholine] was 316 nM; that for `CNc1cc(C)c(-c2ccc3[nH]c(-c4c(F)cccc4Cl)cc3c2)cn1` [Example 166, 5-(2-(2-chloro-6-fluorophenyl)-1H-indol-5-yl)-N,4-dimethylpyridin-2-amine] was 518 nM. With `Cc1cc(S(=O)(=O)N(C)C)cnc1-c1ccc2[nH]c(-c3c(F)cccc3Cl)cc2c1` [Example 167, 6-(2-(2-chloro-6-fluorophenyl)-1H-indol-5-yl)-N,N,5-trimethylpyridine-3-sulfonamide] the figure was 34 nM; with `CNS(=O)(=O)c1ccc(-c2ccc3[nH]c(-c4c(F)cccc4Cl)cc3c2)c(C)c1` [Example 168, 4-(2-(2-chloro-6-fluorophenyl)-1H-indol-5-yl)-N,3-dimethylbenzenesulfonamide], 44 nM; with `Cc1cc(S(=O)(=O)N2CCOCC2)ccc1-c1ccc2[nH]c(-c3c(F)cccc3Cl)cc2c1` [Example 169, 4-(4-(2-(2-chloro-6-fluorophenyl)-1H-indol-5-yl)-3-methylphenylsulfonyl)morpholine], 117 nM. The value for `Cc1cc(S(=O)(=O)N2CCN(C)CC2)ccc1-c1ccc2[nH]c(-c3c(F)cccc3Cl)cc2c1` [Example 170, 2-(2-chloro-6-fluorophenyl)-5-(2-methyl-4-(4-methylpiperazin-1-ylsulfonyl)phenyl)-1H-indole] was 170 nM; that for `Cc1cc(-c2nnn(C)n2)ccc1-c1ccc2[nH]c(-c3c(F)cccc3Cl)cc2c1` [Example 171, 2-(2-chloro-6-fluorophenyl)-5-(2-methyl-4-(2-methyl-2H-tetrazol-5-yl)phenyl)-1H-indole] was 17 nM. Regarding `COc1cc(C#N)ccc1-c1ccc2[nH]c(-c3c(F)cccc3Cl)cc2c1` [Example 172, 4-[2-(2-Chloro-6-fluoro-phenyl)-1H-indol-5-yl]-3-methoxy-benzonitrile], half-maximal inhibition (IC50) was put at 15 nM.

For `Cc1cc(S(C)(=O)=O)ncc1-c1ccc2[nH]c(-c3c(F)cccc3Cl)cc2c1` [Example 173, 2-(2-Chloro-6-fluoro-phenyl)-5-(6-methanesulfonyl-4-methyl-pyridin-3-yl)-1H-indole], the IC50 worked out at 12 nM. With `CCc1cc(Cl)ncc1-c1ccc2[nH]c(-c3c(F)cccc3Cl)cc2c1` [Example 174, 5-(6-Chloro-4-ethyl-pyridin-3-yl)-2-(2-chloro-6-fluoro-phenyl)-1H-indole] the figure was 22 nM; with `CCc1sc(-c2cccnc2)nc1-c1ccc2[nH]c(-c3c(F)cccc3Cl)cc2c1` [Example 175, 4-[2-(2-chloro-6-fluorophenyl)-1H-indol-5-yl]-5-ethyl-2-(pyridin-3-yl)thiazole], 11 nM; with `Cc1sc(-c2cnccn2)nc1-c1ccc2[nH]c(-c3c(F)cccc3Cl)cc2c1` [Example 176, 2-(2-Chloro-6-fluoro-phenyl)-5-(5-methyl-2-pyrazin-2-yl-thiazol-4-yl)-1H-indole], 14 nM. The value for `Cc1sc(-c2cncnc2)nc1-c1ccc2[nH]c(-c3c(F)cccc3Cl)cc2c1` [Example 177, 2-(2-Chloro-6-fluoro-phenyl)-5-(5-methyl-2-pyrimidin-5-yl-thiazol-4-yl)-1H-indole] was 82 nM; that for `Cc1ccc(-c2nc(-c3ccc4[nH]c(-c5c(F)cccc5Cl)cc4c3)c(C)s2)cn1` [Example 178, 2-(2-Chloro-6-fluoro-phenyl)-5-[5-methyl-2-(6-methyl-pyridin-3-yl)-thiazol-4-yl]-1H-indole] was 59 nM; that for `CCc1sc(-c2cnccn2)nc1-c1ccc2[nH]c(-c3c(F)cccc3Cl)cc2c1` [Example 179, 2-(2-Chloro-6-fluoro-phenyl)-5-(5-ethyl-2-pyrazin-2-yl-thiazol-4-yl)-1H-indole] was 23 nM. `CC(C)c1sc(-c2cccnc2)nc1-c1ccc2[nH]c(-c3c(F)cccc3Cl)cc2c1` [Example 180, 2-(2-Chloro-6-fluoro-phenyl)-5-(5-isopropyl-2-pyridin-3-yl-thiazol-4-yl)-1H-indole] registered an IC50 of 28 nM.

Turning to `CC(C)c1sc(-c2cnccn2)nc1-c1ccc2[nH]c(-c3c(F)cccc3Cl)cc2c1` [Example 181, 2-(2-Chloro-6-fluoro-phenyl)-5-(5-isopropyl-2-pyrazin-2-yl-thiazol-4-yl)-1H-indole], the half-inhibitory concentration (IC50) came out at 56 nM.

For `CC(c1sc(-c2cccnc2)nc1-c1ccc2[nH]c(-c3c(F)cccc3Cl)cc2c1)C(F)(F)F` (centres unmarked) [Example 182, 2-(2-chloro-6-fluoro-phenyl)-5-[2-pyridin-3-yl-5-(2,2,2-trifluoro-1-methyl-ethyl)-thiazol-4-yl]-1H-indole], the IC50 came out at 142 nM. The value for `CCn1nc(-c2cnccn2)cc1-c1ccc2[nH]c(-c3c(F)cccc3Cl)cc2c1` [Example 183, 2-(2-chloro-6-fluorophenyl)-5-(1-ethyl-3-(pyrazin-2-yl)-1H-pyrazol-5-yl)-1H-indole] was 28 nM; that for `Cn1nc(-c2ccccn2)nc1-c1ccc2[nH]c(-c3c(F)cccc3Cl)cc2c1` [Example 184, 2-(2-Chloro-6-fluoro-phenyl)-5-(2-methyl-5-pyridin-2-yl-2H-[1,2,4]-triazol-3-yl)-1H-indole] was 148 nM. The value for `CCn1nc(-c2cccnc2)nc1-c1ccc2[nH]c(-c3ccccc3Cl)cc2c1` [Example 185, 2-(2-Chloro-phenyl)-5-(2-ethyl-5-pyridin-3-yl-2H-[1,2,4]-triazol-3-yl)-1H-indole] was 65 nM.

In turn, `CCn1nc(-c2cccnc2)nc1-c1ccc2[nH]c(-c3c(Cl)cccc3Cl)cc2c1` [Example 186, 2-(2,6-Dichloro-phenyl)-5-(2-ethyl-5-pyridin-3-yl-2H-[1,2,4]triazol-3-yl)-1H-indole] registered an IC50 of 34 nM.

`CCn1nc(-c2cnccn2)nc1-c1ccc2[nH]c(-c3c(F)cccc3Cl)cc2c1` [Example 187, 2-(2-Chloro-6-fluoro-phenyl)-5-(2-ethyl-5-pyrazin-2-yl-2H-[1,2,4]triazol-3-yl)-1H-indole]: the IC50 came to 69 nM. The molecule `Cn1nc(-c2cncnc2)nc1-c1ccc2[nH]c(-c3c(F)cccc3Cl)cc2c1` [Example 188, 2-(2-Chloro-6-fluoro-phenyl)-5-(2-methyl-5-pyrimidin-5-yl-2H-[1,2,4]triazol-3-yl)-1H-indole] returned an IC50 of 44 nM. `CCn1nc(C(F)(F)F)cc1-c1ccc2[nH]c(-c3ccncc3C)cc2c1` [Example 189, 5-(1-ethyl-3-(trifluoromethyl)-1H-pyrazol-5-yl)-2-(3-methylpyridin-4-yl)-1H-indole] yielded an IC50 of 76 nM. The value for `CCn1nc(C(F)(F)F)cc1-c1ccc2[nH]c(-c3cnc(OC)cc3C)cc2c1` [Example 190, 5-(1-ethyl-3-(trifluoromethyl)-1H-pyrazol-5-yl)-2-(6-methoxy-4-methylpyridin-3-yl)-1H-indole] was 111 nM; that for `CCn1nc(C(F)(F)F)cc1-c1ccc2[nH]c(-c3cnccc3C)cc2c1` [Example 191, 5-(1-ethyl-3-(trifluoromethyl)-1H-pyrazol-5-yl)-2-(4-methylpyridin-3-yl)-1H-indole] was 67 nM. With `CCn1nc(C(F)(F)F)cc1-c1ccc2[nH]c(-c3ccncc3F)cc2c1` [Example 192, 5-(1-ethyl-3-(trifluoromethyl)-1H-pyrazol-5-yl)-2-(3-fluoropyridin-4-yl)-1H-indole] the figure was 149 nM; with `CCn1nc(C(F)(F)F)cc1-c1ccc2[nH]c(-c3ccc(OC)nc3C)cc2c1` [Example 193, 5-(1-ethyl-3-(trifluoromethyl)-1H-pyrazol-5-yl)-2-(6-methoxy-2-methylpyridin-3-yl)-1H-indole], 129 nM.

As to `CCn1nc(C(F)(F)F)cc1-c1ccc2[nH]c(-c3ccnc(OC)c3Cl)cc2c1` [Example 194, 2-(3-chloro-2-methoxypyridin-4-yl)-5-(1-ethyl-3-(trifluoromethyl)-1H-pyrazol-5-yl)-1H-indole], 139 nM corresponded to half-maximal inhibition (IC50).

`CCn1nc(C(F)(F)F)cc1-c1ccc2[nH]c(C3=CCCCC3)cc2c1` [Example 195, 2-cyclohexenyl-5-[1-ethyl-3-{trifluoromethyl}-1H-pyrazol-5-yl]-1H-indole] showed an IC50 of 782 nM.
